Reference: ChEMBL document CHEMBL4308841, “Synthesis, in vitro antiproliferative activity, and kinase inhibitory effects of pyrazole-containing diarylureas and diarylamides” (Eur J Med Chem, 2018)

Legend:
BT-549 = assay: Growth inhibition of human BT549 cells assessed as cell growth at 0.1 uM incubated for 48 hrs by sulforhodamine B assay relative to control; type: functional; conditions: BT-549, 48 h, read-out: Activity
Hs-578T [1] = assay: Growth inhibition of human Hs578T cells assessed as cell growth at 0.01 uM incubated for 48 hrs by sulforhodamine B assay relative to control; type: functional; conditions: read-out: Activity
Hs-578T [2] = assay: Growth inhibition of human Hs578T cells assessed as cell growth at 100 uM incubated for 48 hrs by sulforhodamine B assay relative to control; type: functional; conditions: read-out: Activity
ACHN = assay: Growth inhibition of human ACHN cells assessed as cell growth at 0.1 uM incubated for 48 hrs by sulforhodamine B assay relative to control; type: functional; conditions: read-out: Activity
NCI-H23 = assay: Growth inhibition of human NCI-H23 cells assessed as cell growth at 0.1 uM incubated for 48 hrs by sulforhodamine B assay relative to control; type: functional; conditions: NCI-H23, 48 h, read-out: Activity
SF-539 = assay: Growth inhibition of human SF539 cells assessed as cell growth at 0.1 uM incubated for 48 hrs by sulforhodamine B assay relative to control; type: functional; conditions: SF-539, 48 h, read-out: Activity
RPMI-8226 = assay: Growth inhibition of human RPMI8226 cells assessed as cell growth at 100 uM incubated for 48 hrs by sulforhodamine B assay relative to control; type: functional; conditions: RPMI-8226, 48 h, read-out: Activity
RXF 393 [3] = assay: Growth inhibition of human RXF393 cells incubated for 48 hrs by sulforhodamine B assay; type: functional, cell-based; conditions: RXF 393, 48 h
NCI-H522 [4] = assay: Growth inhibition of human NCI-H522 cells assessed as cell growth at 100 uM incubated for 48 hrs by sulforhodamine B assay relative to control; type: functional; conditions: NCI-H522, 48 h, read-out: Activity
DU-145 = assay: Growth inhibition of human DU145 cells assessed as cell growth at 1 uM incubated for 48 hrs by sulforhodamine B assay relative to control; type: functional; conditions: DU-145, 48 h, read-out: Activity
NCI-H522 [5] = assay: Growth inhibition of human NCI-H522 cells assessed as cell growth at 0.01 uM incubated for 48 hrs by sulforhodamine B assay relative to control; type: functional; conditions: NCI-H522, 48 h, read-out: Activity
A549 = assay: Growth inhibition of human A549/ATCC cells incubated for 48 hrs by sulforhodamine B assay; type: functional, cell-based; conditions: A549, 48 h
786-0 [6] = assay: Growth inhibition of human 786-0 cells assessed as cell growth at 1 uM incubated for 48 hrs by sulforhodamine B assay relative to control; type: functional; conditions: 786-0, 48 h, read-out: Activity
U-251 = assay: Growth inhibition of human U251 cells incubated for 48 hrs by sulforhodamine B assay; type: functional, cell-based; conditions: U-251, 48 h
RXF 393 [7] = assay: Growth inhibition of human RXF393 cells assessed as cell growth at 0.01 uM incubated for 48 hrs by sulforhodamine B assay relative to control; type: functional; conditions: RXF 393, 48 h, read-out: Activity
SK-OV-3 [8] = assay: Growth inhibition of human SKOV3 cells assessed as cell growth at 0.01 uM incubated for 48 hrs by sulforhodamine B assay relative to control; type: functional; conditions: SK-OV-3, 48 h, read-out: Activity
SK-OV-3 [9] = assay: Growth inhibition of human SKOV3 cells assessed as cell growth at 1 uM incubated for 48 hrs by sulforhodamine B assay relative to control; type: functional; conditions: SK-OV-3, 48 h, read-out: Activity
NCI-H460 = assay: Growth inhibition of human NCI-H460 cells incubated for 48 hrs by sulforhodamine B assay; type: functional, cell-based; conditions: NCI-H460, 48 h
HCT-15 = assay: Growth inhibition of human HCT15 cells assessed as cell growth at 0.01 uM incubated for 48 hrs by sulforhodamine B assay relative to control; type: functional; conditions: HCT-15, 48 h, read-out: Activity
SNB-75 = assay: Growth inhibition of human SNB75 cells incubated for 48 hrs by sulforhodamine B assay; type: functional, cell-based; conditions: SNB-75, 48 h
SK-MEL-2 = assay: Growth inhibition of human SK-MEL-2 cells assessed as cell growth at 0.01 uM incubated for 48 hrs by sulforhodamine B assay relative to control; type: functional; conditions: SK-MEL-2, 48 h, read-out: Activity
COLO 205 = assay: Growth inhibition of human COLO205 cells assessed as cell growth at 0.01 uM incubated for 48 hrs by sulforhodamine B assay relative to control; type: functional; conditions: COLO 205, 48 h, read-out: Activity
SW-620 = assay: Growth inhibition of human SW620 cells assessed as cell growth at 100 uM incubated for 48 hrs by sulforhodamine B assay relative to control; type: functional; conditions: SW-620, 48 h, read-out: Activity
HL-60(TB) = assay: Growth inhibition of human HL-60(TB) cells assessed as cell growth at 0.1 uM incubated for 48 hrs by sulforhodamine B assay relative to control; type: functional; conditions: HL-60, 48 h, read-out: Activity
A498 = assay: Growth inhibition of human A498 cells incubated for 48 hrs by sulforhodamine B assay; type: functional, cell-based; conditions: A498, 48 h
RXF 393 [10] = assay: Growth inhibition of human RXF393 cells assessed as cell growth at 0.1 uM incubated for 48 hrs by sulforhodamine B assay relative to control; type: functional; conditions: RXF 393, 48 h, read-out: Activity
786-0 [11] = assay: Growth inhibition of human 786-0 cells incubated for 48 hrs by sulforhodamine B assay; type: functional, cell-based; conditions: 786-0, 48 h
UO-31 = assay: Growth inhibition of human UO31 cells incubated for 48 hrs by sulforhodamine B assay; type: functional, cell-based; conditions: UO-31, 48 h
[12] = read-out: LC50 (the source's name)
[13] = read-out: pLC50 (the source's name) (converted)

COc1cc(Cl)cc(-c2nn(-c3cccc(NC(=O)c4ccc(N5CCOCC5)c(C(F)(F)F)c4)c3)cc2-c2ccncc2)c1
growth at 0.1 µM (BT-549): 100%
growth at 0.01 µM (Hs-578T [1]): 92%
growth at 100 µM (Hs-578T [2]): 42%
growth at 0.1 µM (ACHN): 91%
growth at 0.1 µM (NCI-H23): 90%
growth at 0.1 µM (SF-539): 85%
growth at 100 µM (RPMI-8226): 10%
LC50 (RXF 393 [3]): > 100 µM
GI50 (RXF 393 [3]; read-out: GI50): 0.83 µM
TGI (RXF 393 [3]; read-out: TGI): 23.9 µM
GI50 (RXF 393 [3]; read-out: pGI50 (converted)): 0.813 µM
TGI (RXF 393 [3]; read-out: pTGI (converted)): 24 µM
growth at 100 µM (NCI-H522 [4]): 31%
growth at 1 µM (DU-145): 105%
growth at 0.01 µM (NCI-H522 [5]): 94%
IC50 (A549): 9.15 µM
GI50 (A549; read-out: GI50): 9.15 µM
CC50 (A549; [12]): > 100 µM
TGI (A549; read-out: TGI): > 100 µM
GI50 (A549; read-out: pGI50 (converted)): 9.12 µM
CC50 (A549; [13]): > 100 µM
TGI (A549; read-out: pTGI (converted)): > 100 µM
growth at 1 µM (786-0 [6]): 74%
IC50 (U-251): 5.03 µM
GI50 (U-251; read-out: GI50): 5.03 µM
CC50 (U-251; [12]): > 100 µM
TGI (U-251; read-out: TGI): > 100 µM
GI50 (U-251; read-out: pGI50 (converted)): 5.01 µM
CC50 (U-251; [13]): > 100 µM
TGI (U-251; read-out: pTGI (converted)): > 100 µM
growth at 0.01 µM (RXF 393 [7]): 97%
growth at 0.01 µM (SK-OV-3 [8]): 102%
growth at 1 µM (SK-OV-3 [9]): 103%
GI50 (NCI-H460; read-out: GI50): 4.79 µM
CC50 (NCI-H460; [12]): > 100 µM
TGI (NCI-H460; read-out: TGI): > 100 µM
GI50 (NCI-H460; read-out: pGI50 (converted)): 4.79 µM
CC50 (NCI-H460; [13]): > 100 µM
TGI (NCI-H460; read-out: pTGI (converted)): > 100 µM
growth at 0.01 µM (HCT-15): 94%
GI50 (SNB-75; read-out: GI50): 2 µM
CC50 (SNB-75; [12]): > 100 µM
TGI (SNB-75; read-out: TGI): > 100 µM
GI50 (SNB-75; read-out: pGI50 (converted)): 2.63 µM
CC50 (SNB-75; [13]): > 100 µM
TGI (SNB-75; read-out: pTGI (converted)): > 100 µM
growth at 0.01 µM (SK-MEL-2): 96%
growth at 0.01 µM (COLO 205): 103%
growth at 100 µM (SW-620): 22%
growth at 0.1 µM (HL-60(TB)): 91%
GI50 (A498; read-out: GI50): 1.52 µM
CC50 (A498; [12]): > 100 µM
TGI (A498; read-out: TGI): > 100 µM
GI50 (A498; read-out: pGI50 (converted)): 16.2 µM
CC50 (A498; [13]): > 100 µM
TGI (A498; read-out: pTGI (converted)): > 100 µM
growth at 0.1 µM (RXF 393 [10]): 100%
GI50 (786-0 [11]; read-out: GI50): 3.73 µM
CC50 (786-0 [11]; [12]): > 100 µM
TGI (786-0 [11]; read-out: TGI): 29.6 µM
GI50 (786-0 [11]; read-out: pGI50 (converted)): 3.24 µM
CC50 (786-0 [11]; [13]): > 100 µM
TGI (786-0 [11]; read-out: pTGI (converted)): 29.5 µM
IC50 (UO-31): 4.5 µM
GI50 (UO-31; read-out: GI50): 4.5 µM
CC50 (UO-31; [12]): > 100 µM
TGI (UO-31; read-out: TGI): > 100 µM
GI50 (UO-31; read-out: pGI50 (converted)): 4.47 µM
CC50 (UO-31; [13]): > 100 µM
TGI (UO-31; read-out: pTGI (converted)): > 100 µM
